Reference: US11753397B2, “Cereblon binders for the degradation of ikaros” (C4 Therapeutics, Inc., priority 2018, dated 2023)

The compounds below were run on NCIH929.1 cells (assay: Cell viability assay (CellTiter-Glo 2.0, ATP quantification)). Settings: NCIH929.1 cell viability, CellTiter-Glo 2.0, 96 hr incubation, top concentration 1 μM.
Format: cell-based
Description: Example 59. Cell Viability Assay
RPMI 1640 medium, fetal bovine serum (FBS) and 2-mercaptoethanol were purchased from Gibco (Grand Island, N.Y., USA). CellTiter-Glo® 2.0 Assay was purchased from Promega (Madison, Wis., USA). NCIH929.1 cell line was purchased from ATCC (Manassas, Va., USA). Cell culture flasks and 384-well microplates were acquired from VWR (Radnor, Pa., USA).
NCIH929.1 cell viability was determined based on quantification of ATP using CellTiter-Glo® 2.0 luminescent Assay kit, which signals the presence of metabolically-active cells. Briefly, the test compound was added to 384-well plates at a top concentration of 1 μM with 10 points, half log titration in duplicates. NCIH929.1 cells were seeded into the 384-well plates in RPMI medium containing 10% FBS and 0.05 mM 2-mercaptoethanol at a cell density of 750 cells per well. Cells treated in the absence of the test compound were the negative control and cells treated in the absence of CellTiter-Glo® 2.0 were the positive control. At the same day of compound treatment, CellTiter-Glo® 2.0 was added to a plate with cells treated in the absence of the test compound to establish Cytostatic control value (CT0). Cells treated with the test compound were incubated at 37° C. with 5% CO2 for 96 hr. CellTiter-Glo reagent was then added to the cells and luminescence was acquired on EnVision™ Multilabel Reader (PerkinElmer, Santa Clara, Calif., USA).
For `O=C1CCC(N2C(=O)c3cccc(NCc4cnn(C5CCN(C(=O)C6CC(F)(F)C6)CC5)c4)c3C2=O)C(=O)N1` (centres unmarked) [Compound 29, 4-(((1-(1-(3,3-difluorocyclobutane-1-carbonyl)piperidin-4-yl)-1H-pyrazol-4-yl)methyl)amino)-2-(2,6-dioxopiperidin-3-yl)isoindoline-1,3-dione], the GI50 was < 100 nM.
For `O=C1CCC(N2C(=O)c3cccc(NCc4cnn(C5CCN(C(=O)CCC(F)(F)F)CC5)c4)c3C2=O)C(=O)N1` (centres unmarked) [Compound 30, 2-(2,6-dioxopiperidin-3-yl)-4-(((1-(1-(4,4,4-trifluorobutanoyl)piperidin-4-yl)-1H-pyrazol-4-yl)methyl)amino)isoindoline-1,3-dione], the GI50 was < 100 nM.
With `COCC(=O)N1CCC(n2cc(CNc3cccc4c3C(=O)N(C3CCC(=O)NC3=O)C4=O)cn2)CC1` (centres unmarked) [Compound 31, 2-(2,6-dioxopiperidin-3-yl)-4-(((1-(1-(2-methoxyacetyl)piperidin-4-yl)-1H-pyrazol-4-yl)methyl)amino)isoindoline-1,3-dione] the GI50 was < 100 nM.
In the case of `O=C1CCC(N2C(=O)c3cccc(NCc4cnn(C5CCN(C(=O)C6CCCC6)CC5)c4)c3C2=O)C(=O)N1` (centres unmarked) [Compound 32, 4-(((1-(1-(cyclopentanecarbonyl)piperidin-4-yl)-1H-pyrazol-4-yl)methyl)amino)-2-(2,6-dioxopiperidin-3-yl)isoindoline-1,3-dione], the GI50 is reported as < 100 nM.
In the case of `CC1(C(=O)N2CCC(n3cc(CNc4cccc5c4C(=O)N(C4CCC(=O)NC4=O)C5=O)cn3)CC2)CCC1` (centres unmarked) [Compound 33, 2-(2,6-dioxopiperidin-3-yl)-4-(((1-(1-(1-methylcyclobutane-1-carbonyl)piperidin-4-yl)-1H-pyrazol-4-yl)methyl)amino)isoindoline-1,3-dione], the GI50 is reported as < 1 nM.
With `Cn1cc(C(=O)N2CCC(n3cc(CNc4cccc5c4C(=O)N(C4CCC(=O)NC4=O)C5=O)cn3)CC2)cn1` (centres unmarked) [Compound 34, 2-(2,6-dioxopiperidin-3-yl)-4-(((1-(1-(1-methyl-1H-pyrazole-4-carbonyl)piperidin-4-yl)-1H-pyrazol-4-yl)methyl)amino)isoindoline-1,3-dione] the GI50 was < 100 nM.
With `CCCC(=O)N1CCC(n2cc(CNc3cccc4c3C(=O)N(C3CCC(=O)NC3=O)C4=O)cn2)CC1` (centres unmarked) [Compound 35, 4-(((1-(1-butyrylpiperidin-4-yl)-1H-pyrazol-4-yl)methyl)amino)-2-(2,6-dioxopiperidin-3-yl)isoindoline-1,3-dione] the GI50 was < 100 nM.
For `CC1(C(=O)N2CCC(n3cc(CNc4cccc5c4C(=O)N(C4CCC(=O)NC4=O)C5=O)cn3)CC2)CC1` (centres unmarked) [Compound 36, 2-(2,6-dioxopiperidin-3-yl)-4-(((1-(1-(1-methylcyclopropane-1-carbonyl)piperidin-4-yl)-1H-pyrazol-4-yl)methyl)amino)isoindoline-1,3-dione], the GI50 was < 100 nM.
In the case of `CN(C)CC(=O)N1CCC(n2cc(CNc3cccc4c3C(=O)N(C3CCC(=O)NC3=O)C4=O)cn2)CC1` (centres unmarked) [Compound 37, 4-(((1-(1-(dimethylglycyl)piperidin-4-yl)-1H-pyrazol-4-yl)methyl)amino)-2-(2,6-dioxopiperidin-3-yl)isoindoline-1,3-dione], the GI50 is reported as < 100 nM.
With `O=C1CCC(N2C(=O)c3cccc(NCc4cnn(C5CCN(C(=O)[C@H]6CCCO6)CC5)c4)c3C2=O)C(=O)N1` (stereo partly drawn) [Compound 38, 2-(2,6-dioxopiperidin-3-yl)-4-(((1-(1-((R)-tetrahydrofuran-2-carbonyl)piperidin-4-yl)-1H-pyrazol-4-yl)methyl)amino)isoindoline-1,3-dione] the GI50 was < 100 nM.
With `O=C1CCC(N2C(=O)c3cccc(NCc4cnn(C5CCN(C(=O)c6cc(C7CC7)on6)CC5)c4)c3C2=O)C(=O)N1` (centres unmarked) [Compound 39, 4-(((1-(1-(5-cyclopropylisoxazole-3-carbonyl)piperidin-4-yl)-1H-pyrazol-4-yl)methyl)amino)-2-(2,6-dioxopiperidin-3-yl)isoindoline-1,3-dione] the GI50 was < 100 nM.
`CCCCC(=O)N1CCC(n2cc(CNc3cccc4c3C(=O)N(C3CCC(=O)NC3=O)C4=O)cn2)CC1` (centres unmarked) [Compound 40, 2-(2,6-dioxopiperidin-3-yl)-4-(((1-(1-pentanoylpiperidin-4-yl)-1H-pyrazol-4-yl)methyl)amino)isoindoline-1,3-dione] was tested, and the GI50 was < 100 nM.
In the case of `CC(C)OCC(=O)N1CCC(n2cc(CNc3cccc4c3C(=O)N(C3CCC(=O)NC3=O)C4=O)cn2)CC1` (centres unmarked) [Compound 41, 2-(2,6-dioxopiperidin-3-yl)-4-(((1-(1-(2-isopropoxyacetyl)piperidin-4-yl)-1H-pyrazol-4-yl)methyl)amino)-isoindoline-1,3-dione], the GI50 is reported as < 100 nM.
`O=C1CCC(N2C(=O)c3cccc(NCc4cnn(C5CCN(C(=O)C6CCCOC6)CC5)c4)c3C2=O)C(=O)N1` (centres unmarked) [Compound 42, 2-(2,6-dioxopiperidin-3-yl)-4-(((1-(1-(tetrahydro-2H-pyran-3-carbonyl)piperidin-4-yl)-1H-pyrazol-4-yl)methyl)amino)isoindoline-1,3-dione] was tested, and the GI50 was < 100 nM.
`O=C1CCC(N2C(=O)c3cccc(NCc4cnn(C5CCN(C(=O)CN6CCOCC6)CC5)c4)c3C2=O)C(=O)N1` (centres unmarked) [Compound 43, 2-(2,6-dioxopiperidin-3-yl)-4-(((1-(1-(2-morpholinoacetyl)piperidin-4-yl)-1H-pyrazol-4-yl)methyl)amino)isoindoline-1,3-dione] was tested, and the GI50 was < 100 nM.
In the case of `O=C1CCC(N2C(=O)c3cccc(NCc4cnn(C5CCN(C(=O)C67CC8CC(CC(C8)C6)C7)CC5)c4)c3C2=O)C(=O)N1` (centres unmarked) [Compound 44, 4-(((1-(1-(adamantane-1-carbonyl)piperidin-4-yl)-1H-pyrazol-4-yl)methyl)amino)-2-(2,6-dioxopiperidin-3-yl)isoindoline-1,3-dione], the GI50 is reported as < 1 nM.
`CC1CC1C(=O)N1CCC(n2cc(CNc3cccc4c3C(=O)N(C3CCC(=O)NC3=O)C4=O)cn2)CC1` (centres unmarked) [Compound 45, 2-(2,6-dioxopiperidin-3-yl)-4-(((1-(1-(2-methylcyclopropane-1-carbonyl)piperidin-4-yl)-1H-pyrazol-4-yl)methyl)amino)isondoline-1,3-dione] was tested, and the GI50 was < 100 nM.
For `CC(C)(O)CC(=O)N1CCC(n2cc(CNc3cccc4c3C(=O)N(C3CCC(=O)NC3=O)C4=O)cn2)CC1` (centres unmarked) [Compound 46, 2-(2,6-dioxopiperidin-3-yl)-4-(((1-(1-(3-hydroxy-3-methylbutanoyl)piperidin-4-yl)-1H-pyrazol-4-yl)methyl)amino)isoindoline-1,3-dione], the GI50 was < 100 nM.
`O=C1CCC(N2C(=O)c3cccc(NCc4cnn(C5CCN(C(=O)CC67CC8CC(CC(C8)C6)C7)CC5)c4)c3C2=O)C(=O)N1` (centres unmarked) [Compound 47, 4-(((1-(1-(2-(adamantan-1-yl)acetyl)piperidin-4-yl)-1H-pyrazol-4-yl)methyl)amino)-2-(2,6-dioxopiperidin-3-yl)isoindoline-1,3-dione] was tested, and the GI50 was < 1 nM.
For `C[C@@H](C(=O)N1CCC(n2cc(CNc3cccc4c3C(=O)N(C3CCC(=O)NC3=O)C4=O)cn2)CC1)c1ccccc1` (stereo partly drawn) [Compound 48, 2-(2,6-dioxopiperidin-3-yl)-4-(((1-(1-((R)-2-phenylpropanoyl)piperidin-4-yl)-1H-pyrazol-4-yl)methyl)amino)isoindoline-1,3-dione], the GI50 was < 100 nM.
In the case of `CC(C)CC(=O)N1CCC(n2cc(CNc3cccc4c3C(=O)N(C3CCC(=O)NC3=O)C4=O)cn2)CC1` (centres unmarked) [Compound 49, 2-(2,6-dioxopiperidin-3-yl)-4-(((1-(1-(3-methylbutanoyl)piperidin-4-yl)-1H-pyrazol-4-yl)methyl)amino)isoindoline-1,3-dione], the GI50 is reported as < 100 nM.
In the case of `CC(C)(N)C(=O)N1CCC(n2cc(CNc3cccc4c3C(=O)N(C3CCC(=O)NC3=O)C4=O)cn2)CC1` (centres unmarked) [Compound 50, 4-(((1-(1-(2-amino-2-methylopropanoyl)piperidin-4-yl)-1H-pyrazol-4-yl)methyl)amino)-2-(2,6-dioxopiperidin-3-yl)isoindoline-1,3-dione], the GI50 is reported as < 100 nM.
In the case of `C[C@H](C(=O)N1CCC(n2cc(CNc3cccc4c3C(=O)N(C3CCC(=O)NC3=O)C4=O)cn2)CC1)c1ccccc1` (stereo partly drawn) [Compound 51, 2-(2,6-dioxopiperidin-3-yl)-4-(((1-(1-((S)-2-phenylpropanoyl)piperidin-4-yl)-1H-pyrazol-4-yl)methyl)amino)isoindoline-1,3-dione], the GI50 is reported as < 100 nM.
`CC(C)(O)C(=O)N1CCC(n2cc(CNc3cccc4c3C(=O)N(C3CCC(=O)NC3=O)C4=O)cn2)CC1` (centres unmarked) [Compound 52, 2-(2,6-dioxopiperidin-3-yl)-4-(((1-(1-(2-hydroxy-2-methylpropanoyl)piperidin-4-yl)-1H-pyrazol-4-yl)methyl)amino)isoindoline-1,3-dione] was tested, and the GI50 was < 100 nM.
With `C[C@H](O)C(=O)N1CCC(n2cc(CNc3cccc4c3C(=O)N(C3CCC(=O)NC3=O)C4=O)cn2)CC1` (stereo partly drawn) [Compound 53, 2-(2,6-dioxopiperidin-3-yl)-4-(((1-(1-((S)-2-hydroxypropanoyl)piperidin-4-yl)-1H-pyrazol-4-yl)methyl)amino)isoindoline-1,3-dione] the GI50 was < 100 nM.
For `CN1CCC(C)(C(=O)N2CCC(n3cc(CNc4cccc5c4C(=O)N(C4CCC(=O)NC4=O)C5=O)cn3)CC2)CC1` (centres unmarked) [Compound 55, 4-(((1-(1-(1,4-dimethylpiperidine-4-carbonyl)piperidin-4-yl)-1H-pyrazol-4-yl)methyl)amino)-2-(2,6-dioxopiperidin-3-yl)isoindoline-1,3-dione], the GI50 was < 100 nM.
